From US7691572B2, “Method and kit for detecting resistance to antiviral drugs” (priority 1998, dated 2010)
Several values for one entry are separate records, joined by “and”; a condition that tells them apart may be missing. Equal entries are not always repeated. Where two headings read alike, the source gives them in different places.

Assays:
HIV-1 RT [1] = experiment: Amp-RT assay, AZT-TP and other NRTI-TPs, reference viruses; type: biochemical
plasma HIV-1 RT = plasma HIV-1 RT (Human immunodeficiency virus type 1, UniProt P04585); settings: 50 μM nevirapine
Protocol: (§1) For culture supernatant, 10 μl were used directly in the Amp-RT assay. For plasma testing, a volume of 100 μl was clarified by centrifugation at 10,000 g for five minutes and then ultracentrifuged at a fixed angle at 99,000 g for 1 hour at 4° C. The viral pellet was resuspended in 100 μl of RT buffer (50 mM Tris-HCl, 50 mM KCl, 10 mM MgCl2). Ten microliter aliquots of virus pellets were applied to an RT buffer containing 10 ng of EMCV RNA template, 10 units of RNasin, 0.6% NP-40, 100 ng of the 5′-biotin-labeled EMCR2 antisense primer, 1 nM EGTA, 2 mM dithiothreitol, 50 mM Tris-HCl, 50 mM KCl, 10 mM MgCl2, and 400 uM of each dNTP. Reactions were incubated at 37° C. for 2 hours and then heated at 95° C. for five minutes to destroy RT activity. […] The conditions for PCR were 35 cycles at 95° C. for one minute, 55° C. for one minute, and 72° C. for one minute.
(§2) For quantitation of RT levels, a standard curve was generated by using known RT units from a reference HIV-1 stock (Virology Quality Assurance Laboratory, Rush-Presbyterian-St. Luke's Medical Center, Chicago, Ill.). […] All samples were tested within the linear range of the Amp-RT assay (from 10^−6 to 10^−10 units of RT activity). Samples which had levels of RT activity above the linear range of the assay, were further diluted in RT buffer and retested again. The minimum detectable level of HIV-1 RT activity by the Amp-RT in plasma is 10^−10 units, the equivalent of 1 HIV-1 particle of the reference virus used for quantitation. The results of Amp-RT signals were expressed as units of RT activity per milliliter of plasma and reflect the average of duplicate results.

HIV-1 RT [2] = target: HIV-1 RT (Human immunodeficiency virus type 1 group M subtype B, UniProt P04585, M628L/L661V/V693A/T802Y); settings: 50 μM; HIV-1RTMDR1/MT-2 (74V/41L/106A/215Y)
Protocol: as §1, §2

HIV-1 RT [3] = system: HIV-1 RT
Protocol: as §1, §2

HIV-1 isolates = settings: read-out: IC50 Culture, cited from earlier work
[4] = MNR HIV-1SUM12 (F77L, F116Y, Q151M)
[5] = MNR HIV-1SUM13 (A62V, V75I, F77L, F116Y, Q151M)

In the case of `Cc1cn([C@H]2C=C[C@@H](COP(=O)(O)OP(=O)(O)OP(=O)(O)O)O2)c(=O)[nH]c1=O` [d4T-TP], the IC50 (HIV-1 RT [1]; MNR HIV-1SUM8 (Q151M)) is reported as 320 nM, the “fold resistance (IC50) as compared to the mean IC values of WT HIV-1” value (from here on “fold resistance (IC50)”) (HIV-1 RT [1]; MNR HIV-1SUM8 (Q151M)) is reported as “(9.1) fold” and the IC50 (HIV-1 RT [1]; [4]) is reported as 370 nM. The “fold resistance (IC50)” value (HIV-1 RT [1]; [4]) was “(10.6) fold”, the IC50 (HIV-1 RT [1]; [5]) was 370 nM and the “fold resistance (IC50)” value (HIV-1 RT [1]; [5]) was “(10.6) fold”. The IC50 (HIV-1 RT [1]; WT HIV-1LAI) was 15 nM and the IC50 (HIV-1 RT [1]; WT HIV-1SUM9) was 55 nM.
In the case of `Nc1ncnc2c1ncn2[C@H]1CC[C@@H](COP(=O)(O)OP(=O)(O)OP(=O)(O)O)O1` [ddA-TP], the IC50 (HIV-1 RT [1]; MNR HIV-1SUM8 (Q151M)) is reported as 1200 nM, the “fold resistance (IC50)” value (HIV-1 RT [1]; MNR HIV-1SUM8 (Q151M)) is reported as “(6.5) fold” and the IC50 (HIV-1 RT [1]; [4]) is reported as 1100 nM. The “fold resistance (IC50)” value (HIV-1 RT [1]; [4]) was “(5.9) fold”, the IC50 (HIV-1 RT [1]; [5]) was 6000 nM and the “fold resistance (IC50)” value (HIV-1 RT [1]; [5]) was “(32.4) fold”. The IC50 (HIV-1 RT [1]; WT HIV-1SUM9) was 270 nM and the IC50 (HIV-1 RT [1]; WT HIV-1xxBRUpitt) was 100 nM.
With `Nc1ccn([C@H]2CC[C@@H](COP(=O)(O)OP(=O)(O)OP(=O)(O)O)O2)c(=O)n1` [ddC-TP, ddC-triphosphate] the IC50 (HIV-1 RT [1]; MNR HIV-1SUM8 (Q151M)) was 1800 nM, the “fold resistance (IC50)” value (HIV-1 RT [1]; MNR HIV-1SUM8 (Q151M)) was “(3.6) fold” and the IC50 (HIV-1 RT [1]; [4]) was 6000 nM. For the same molecule, the “fold resistance (IC50)” value (HIV-1 RT [1]; [4]) was “(12) fold”, the IC50 (HIV-1 RT [1]; [5]) was 7500 nM and the “fold resistance (IC50)” value (HIV-1 RT [1]; [5]) was “(15) fold”. For the same molecule, the IC50 (HIV-1 RT [1]; WT HIV-1LAI) was 500 nM and the IC50 (HIV-1 RT [1]; WT HIV-1SUM9) was 500 nM.
`Cc1ccnc2c1NC(=O)c1cccnc1N2C1CC1` [nevirapine] gave an RT inhibition (plasma HIV-1 RT; patient N06, after 7 days of treatment) of 100%, an RT inhibition (plasma HIV-1 RT; patient N07, day 7 of treatment) of 24% and an RT inhibition (plasma HIV-1 RT; patient N12, after 7 days of treatment) of 94%. For the same molecule, the RT inhibition (plasma HIV-1 RT; patient N12, day 14 of treatment) was 32%, the “mean RT inhibition” value (plasma HIV-1 RT; samples after more than two weeks of treatment) was 13.82% and the “mean RT inhibition” value (plasma HIV-1 RT; samples collected before therapy (n=7)) was 99.3%. The “mean RT inhibition” value (plasma HIV-1 RT; samples of the first six days of treatment (n=14)) was 98.2%, the “Inhibition of RT by Nevirapine” value (HIV-1 RT [2]) was “partially inhibited” and the “inhibition of RT” value (HIV-1 RT [3]; 50 μM nevirapine, isolate W786-6, 8.3×10^−9 units of RT activity) was “no significant inhibition”. The “Inhibition of RT. (%)” value (HIV-1 RT [3]; 50 μM nevirapine, isolate W786-6, input 5.6 × 10^−8 units) was 0%, the “Inhibition of RT. (%)” value (HIV-1 RT [3]; 50 μM nevirapine, isolate X267-1, input 6.9 × 10^−9 units) was “complete inhibition and 100%” and the “Inhibition of RT. (%)” value (HIV-1 RT [3]; 50 μM nevirapine, isolate X267-1, input 7.1 × 10^−7 units) was 98.6%. For the same molecule, the “Inhibition of RT. (%)” value (HIV-1 RT [3]; 50 μM nevirapine, isolate X267-1, input 7.1 × 10^−7 units, listed as Nevirapine) was 98.7%, the “Inhibition of RT. (%)” value (HIV-1 RT [3]; 50 μM nevirapine, isolate X267-1, input 7.2 × 10^−8 units) was “complete inhibition and 100%” and the “Inhibition of RT. (%)” value (HIV-1 RT [3]; 50 μM nevirapine, isolate X403-4, input 4.4 × 10^−7 units) was 16%. The “inhibition of RT” value (HIV-1 RT [3]; 50 μM nevirapine, isolates X403-4 and W786-6, high or low input of RT) was “no significant inhibition”, the “Inhibition of RT. (%)” value (HIV-1 RT [3]; 50 μM nevirapine, line under isolate X403-4, input 4.1 × 10^−7 units) was 0% and the “Inhibition of RT. (%)” value (HIV-1 RT [3]; 50 μM nevirapine, line under isolate X403-4, input 8.2 × 10^−9 units) was 0%. The RT inhibition (HIV-1 RT [3]; 50 μM nevirapine, mixture 10% resistant (W786-6) and 90% sensitive (X267-1) viruses) was 94%, the RT inhibition (HIV-1 RT [3]; 50 μM nevirapine, mixture containing 25% resistant viruses) was 80% and the RT inhibition (HIV-1 RT [3]; 50 μM nevirapine, mixture containing 75% resistant viruses) was 29%. The “inhibition of RT activity” value (HIV-1 RT [3]; 50 μM nevirapine, resistant isolates) was “little or no inhibition”, the RT inhibition (HIV-1 RT [3]; 50 μM nevirapine, sensitive isolate X267-1 alone) was over 99% and the “Inhibition of RT by Nevirapine” value (HIV-1 RT [3]; 50 μM, HIV-1RTMC/MT-2 (67N/70R/215F/219Q), AZT-resistant) was 91.8%. The “Inhibition of RT by Nevirapine” value (HIV-1 RT [3]; 50 μM, HIV-1RTMDR1/MT-2 (74V/41L/106A/215Y)) was 43%, the “Inhibition of RT by Nevirapine” value (HIV-1 RT [3]; 50 μM, L6KL5 (103N/75I/77L/116Y/151M)) was 7% and the “Inhibition of RT by Nevirapine” value (HIV-1 RT [3]; 50 μM, L6KL5 (103N/75I/77L/116Y/151M), listed as Nevirapine) was 0%. For the same molecule, the “Inhibition of RT by Nevirapine” value (HIV-1 RT [3]; 50 μM, M184V/Y181CEU (184V/181C)) was 0%, the “Inhibition of RT by Nevirapine” value (HIV-1 RT [3]; 50 μM, M184Vpitt (184V), 3TC-resistant) was 98.8% and the “Inhibition of RT by Nevirapine” value (HIV-1 RT [3]; 50 μM, N119 (181C)) was 0%. For the same molecule, the “Inhibition of RT by Nevirapine” value (HIV-1 RT [3]; 50 μM, N119 (181C), listed as Nevirapine) was 7%, the susceptibility to nevirapine (HIV-1 RT [3]; 50 μM, viruses containing mutations associated with AZT or 3TC resistance) was “susceptible” and the “Units of RT activity With 50 μM Nevirapine” value (“Units” for short) (HIV-1 RT [3]; isolate W786-6, 5.6 × 10^−8 without nevirapine) was 7.7 × 10^−8 Units of RT activity. The “Units” value (HIV-1 RT [3]; isolate X267-1, 7.1 × 10^−7 without nevirapine) was 9.1 × 10^−9 Units of RT activity, the “Units” value (HIV-1 RT [3]; isolate X403-4, 4.4 × 10^−7 without nevirapine) was 3.7 × 10^−7 Units of RT activity and the “Units” value (HIV-1 RT [3]; line under isolate X403-4, 4.1 × 10^−7 without nevirapine) was 5.0 × 10^−7 Units of RT activity. For the same molecule, the “Units” value (HIV-1 RT [3]; line under isolate X403-4, 8.2 × 10^−9 without nevirapine) was 8.4 × 10^−9 Units of RT activity, the IC50 (HIV-1 isolates; isolate S469-2/M3 (Y188L)) was 100000 nM and the IC50 (HIV-1 isolates; isolate X165-6 (no mutations)) was 70 nM. The IC50 (HIV-1 isolates; isolate X267-1 (no mutations)) was 40 nM.
